Like-named read-outs stand apart in the source and are kept apart here.
Tests used:
[1] = system: P. aeruginosa expressing IMP-1, efflux− (MB9799); assay: Efflux: concentration of MBL inhibitor which restores susceptibility to imipenem; type: cell-based, Pseudomonas aeruginosa; settings: imipenem at 2 μg/mL, in the presence of a class A, C, D serine β-lactamase inhibitor closely related to relebactam
Source text: (§1) The strain background is Pseudomonas aeruginosa PAO1.

VIM-1 = VIM-1 (Pseudomonas aeruginosa (strain ATCC 15692 / DSM 22644 / CIP 104116 / JCM 14847 / LMG 12228 / 1C / PRS 101 / PAO1), UniProt A0A0F7KYQ8); assay: biochemical; settings: CCF2-FA substrate, 2 hours at 25° C
Summary of the method: (§2)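 Fluorescence assay of metallo-β-lactamase activity using CCF2-FA, a cephalosporin-linked 7-hydroxycoumarin–fluorescein substrate. Inhibitor, enzyme and substrate were incubated together for 2 hours at 25° C. IC50 came from a 4-parameter fit of inhibition versus inhibitor concentration.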

[2] = system: P. aeruginosa expressing IMP-1, efflux+ (MB9798); type: cell-based, Pseudomonas aeruginosa; settings: for P. aeruginosa expressing IMP-1, efflux+ (MB9798) MITC95: imipenem at 2 μg/mL, in the presence of a class A, C, D serine β-lactamase inhibitor closely related to relebactam; for Efflux ratio: ratio MITC95 PA_9798/MITC95 PA_9799
Source text: as §1

[3] = system: Klebsiella pneumoniae expressing VIM-1 (IHMA599644); type: cell-based; settings: VIM-1 (IHMA599644), with imipenem 1 μg/ml, 95% inhibition of bacterial growth
Summary of the method: (§3)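 Clinical strains grown overnight on blood agar, then diluted 1:100 in 1.1× CAMHB and exposed to test compound with imipenem at 1 μg/ml. Incubation was 22–24 h at 35° C; growth was read by absorbance to find the compound concentration restoring imipenem susceptibility.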

[4] = system: Escherichia coli expressing NDM-1 (CLB30005, CLB30016); type: cell-based; settings: NDM-1 (CLB30016), with imipenem 1 μg/ml, 95% inhibition of bacterial growth
Summary of the method: as §3

[5] = system: Serratia marcescens expressing IMP-1 (CL5741); type: cell-based; settings: IMP-1 (CL5741), with imipenem 1 μg/ml, 95% inhibition of bacterial growth
Summary of the method: as §3

IMP-1 = IMP-1 (Serratia marcescens, UniProt P52699); assay: biochemical; type: biochemical; settings: CCF2-FA substrate, 2 hours at 25° C; read-out: IMP-1 IC50
Summary of the method: as §2

NDM-1 = NDM-1 (Klebsiella pneumoniae, UniProt C7C422); assay: biochemical; type: biochemical
Summary of the method: as §2

[6] = CCF2-FA substrate, 2 hours at 25° C, read-out: NDM-1 IC50

IMP-1, sequence (P52699 whole entry, looked up, species assumed): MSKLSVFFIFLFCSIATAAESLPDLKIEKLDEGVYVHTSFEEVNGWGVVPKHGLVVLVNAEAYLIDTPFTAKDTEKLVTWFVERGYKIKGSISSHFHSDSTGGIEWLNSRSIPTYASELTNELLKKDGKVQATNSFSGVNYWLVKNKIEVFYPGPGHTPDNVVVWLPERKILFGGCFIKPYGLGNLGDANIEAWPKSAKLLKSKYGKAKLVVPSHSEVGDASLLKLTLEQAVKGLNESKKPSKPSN
NDM-1, sequence (C7C422 whole entry, looked up, species assumed): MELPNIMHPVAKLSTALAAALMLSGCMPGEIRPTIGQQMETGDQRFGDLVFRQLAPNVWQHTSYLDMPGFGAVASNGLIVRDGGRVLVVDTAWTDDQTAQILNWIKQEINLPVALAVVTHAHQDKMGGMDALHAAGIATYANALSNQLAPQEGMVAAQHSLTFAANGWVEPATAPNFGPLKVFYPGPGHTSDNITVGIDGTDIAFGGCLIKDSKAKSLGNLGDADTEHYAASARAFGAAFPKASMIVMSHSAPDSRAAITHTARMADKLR

Structure (SMILES)	P. aeruginosa expressing IMP-1, efflux− (MB9799) MITC95 [1] [µM]	IC50 (VIM-1) [nM]	P. aeruginosa expressing IMP-1, efflux+ (MB9798) MITC95 [2] [µM]	Efflux ratio [2]	Klebsiella pneumoniae MITC95 [3] [µM]	Escherichia coli MITC95 [4] [µM]	Serratia marcescens MITC95 [5] [µM]	IC50 (IMP-1) [nM]	IC50 (NDM-1) [nM]	IC50 (NDM-1; [6]) [nM]
NCCS(=O)(=O)c1ccc(-c2cccc3[nH]c([C@H](N)CN)nc23)c(-c2nn[nH]n2)c1S(N)(=O)=O [Example 327, (R)-6-((2-Aminoethyl)sulfonyl)-3-(2-(1,2-diaminoethyl)-1H-benzo[d]imidazol-4-yl)-2-(2H-tetrazol-5-yl)benzenesulfonamide]	1.563	0.455	3.125	2.00	3.125	1.563	3.125	2.23	1.02	–
NCCS(=O)(=O)c1ccc(-c2cccc3[nH]c([C@H](N)CNC(=O)C(F)(F)F)nc23)c(-c2nn[nH]n2)c1S(N)(=O)=O [Example 328, (R)—N-(2-Amino-2-(4-(4-((2-aminoethyl)sulfonyl)-3-sulfamoyl-2-(2H-tetrazol-5-yl)phenyl)-1H-benzo[d]imidazol-2-yl)ethyl)-2,2,2-trifluoroacetamide]	1.563	0.474	3.125	2.00	3.125	1.563	3.125	3.42	–	1.3
NCCS(=O)(=O)c1ccc(-c2cccc3[nH]c([C@H](N)CO)nc23)c(-c2nn[nH]n2)c1S(N)(=O)=O [Example 329, (S)-3-(2-(1-amino-2-hydroxyethyl)-1H-benzo[d]imidazol-4-yl)-6-((2-aminoethyl)sulfonyl)-2-(2H-tetrazol-5-yl) benzenesulfonamide]	1.563	0.282	3.125	2.00	6.25	1.563	3.125	1.93	–	0.404
NCCS(=O)(=O)c1ccc(-c2cccc3[nH]c(CC(N)C(=O)O)nc23)c(-c2nn[nH]n2)c1S(N)(=O)=O (stereo not drawn) [Example 330, 2-amino-3-(4-(4-((2-aminoethyl)sulfonyl)-3-sulfamoyl-2-(2H-tetrazol-5-yl)phenyl)-1H-benzo[d]imidazol-2-yl)propanoic acid]	3.125	0.639	6.25	2.00	6.25	3.125	1.563	3.61	–	0.675
Cc1nc2c(-c3ccc(S(=O)(=O)CCN)c(S(N)(=O)=O)c3-c3nn[nH]n3)cccc2[nH]1 [Example 331, 6-((2-aminoethyl)sulfonyl)-3-(2-methyl-1H-benzo[d]imidazol-4-yl)-2-(2H-tetrazol-5-yl) benzenesulfonamide]	1.563	0.183	1.563	1.00	6.25	3.125	1.563	0.302	–	0.165
NS(=O)(=O)c1c(S(=O)(=O)C2CNC2)ccc(-c2cccc3[nH]cnc23)c1-c1nn[nH]n1 [Example 332, 6-(Azetidin-3-ylsulfonyl)-3-(1H-benzo[d]imidazol-4-yl)-2-(2H-tetrazol-5-yl)benzenesulfonamide]	1.563	0.275	6.25	4.00	3.125	0.7813	1.563	0.557	–	0.124
NCCS(=O)(=O)c1ccc(-c2cccc(NC(=O)CN)c2)c(-c2nn[nH]n2)c1S(N)(=O)=O [Example 333, 2-Amino-N-(4′-((2-aminoethyl)sulfonyl)-3′-sulfamoyl-2′-(2H-tetrazol-5-yl)-[1,1′-biphenyl]-3-yl)acetamide]	0.7813	0.312	6.25	8.00	1.563	0.3906	1.563	10.3	–	3.44
NCCS(=O)(=O)c1ccc(-c2cnc(N)c(C(N)=O)c2)c(-c2nn[nH]n2)c1S(N)(=O)=O [Example 335, 2-Amino-5-(4-((2-aminoethyl)sulfonyl)-3-sulfamoyl-2-(2H-tetrazol-5-yl)phenyl)nicotinamide]	1.563	1.23	12.5	8.00	3.125	1.563	1.563	8.9	–	3.22
NCCS(=O)(=O)c1ccc(-c2cnc(N)c(C(=O)N[C@H]3CCNC3)c2)c(-c2nn[nH]n2)c1S(N)(=O)=O [Example 336, (S)-2-Amino-5-(4-((2-aminoethyl)sulfonyl)-3-sulfamoyl-2-(2H-tetrazol-5-yl)phenyl)-N-(pyrrolidin-3-yl)nicotinamide]	1.563	3.57	12.5	8.00	3.125	0.7813	1.563	9.51	–	6.3
NCCS(=O)(=O)c1ccc(-c2cccc(NC(=O)CN)c2NC(=O)CN)c(-c2nn[nH]n2)c1S(N)(=O)=O [Example 338, N,N′-(4′-((2-Aminoethyl)sulfonyl)-3′-sulfamoyl-2′-(2H-tetrazol-5-yl)-[1,1′-biphenyl]-2,3-diyl)bis(2-aminoacetamide)]	6.25	15.1	25	4.00	6.25	1.563	3.125	74.9	–	20.4
NCCS(=O)(=O)c1ccc(-c2ccccc2N)c(-c2nn[nH]n2)c1S(N)(=O)=O [Example 339, 2′-Amino-4-((2-aminoethyl)sulfonyl)-2-(2H-tetrazol-5-yl)-[1,1′-biphenyl]-3-sulfonamide]	1.563	1.78	6.25	4.00	3.125	1.563	3.125	3.42	–	2.52
NCCS(=O)(=O)c1ccc(-c2ccccc2NC(=O)CN)c(-c2nn[nH]n2)c1S(N)(=O)=O [Example 340, 2-Amino-N-(4′-((2-aminoethyl)sulfonyl)-3′-sulfamoyl-2′-(2H-tetrazol-5-yl)-[1,1′-biphenyl]-2-yl)acetamide]	3.125	8.16	12.5	4.00	3.125	1.563	3.125	107	–	24.8
COC(=O)c1cccc(-c2ccc(S(=O)(=O)CCN)c(S(N)(=O)=O)c2-c2nn[nH]n2)c1NCCN [Example 341, Methyl 2-((2-aminoethyl)amino)-4′-((2-aminoethyl)sulfonyl)-3′-sulfamoyl-2′-(2H-tetrazol-5-yl)-[1,1′-biphenyl]-3-carboxylate]	1.563	4.46	25	15.99	3.125	1.563	3.125	16.1	–	4.01

Source: patent US10227331B2 (priority 2015, dated 2019)
